These are literature values, as cited in PMC7070898 (Clinical and Translational Science, 2019).

The target in one series is BTK (Homo sapiens, UniProt Q06187). To be noted: single dose, cited from earlier work.
For series [1] the following is noted: patients receiving acalabrutinib ref 12; cited from earlier work.

Sequence of BTK (Q06187 whole entry): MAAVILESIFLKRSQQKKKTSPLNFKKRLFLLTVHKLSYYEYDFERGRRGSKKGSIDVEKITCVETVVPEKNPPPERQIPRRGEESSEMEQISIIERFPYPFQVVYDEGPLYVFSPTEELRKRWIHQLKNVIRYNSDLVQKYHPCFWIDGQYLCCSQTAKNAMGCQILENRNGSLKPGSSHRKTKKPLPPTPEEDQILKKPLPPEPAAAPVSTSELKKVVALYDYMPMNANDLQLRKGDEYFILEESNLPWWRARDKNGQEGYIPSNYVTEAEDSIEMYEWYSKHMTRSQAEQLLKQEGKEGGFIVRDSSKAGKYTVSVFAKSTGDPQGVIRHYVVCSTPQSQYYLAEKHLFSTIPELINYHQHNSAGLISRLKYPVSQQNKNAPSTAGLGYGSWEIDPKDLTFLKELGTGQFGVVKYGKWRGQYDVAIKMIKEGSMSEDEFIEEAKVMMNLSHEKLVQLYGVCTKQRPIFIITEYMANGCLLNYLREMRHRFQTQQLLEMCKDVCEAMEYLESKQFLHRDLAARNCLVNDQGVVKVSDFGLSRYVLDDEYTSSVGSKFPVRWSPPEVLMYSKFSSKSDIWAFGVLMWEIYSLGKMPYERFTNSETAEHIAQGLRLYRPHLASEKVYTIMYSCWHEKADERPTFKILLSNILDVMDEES

As to `C=CC(=O)Nc1cccc(Nc2nc(Nc3ccc(OCCOC)cc3)ncc2F)c1` [CC‐292], on BTK (five of six healthy subjects, ≤ 4 hours after administration ref 21), the BTK occupancy is above 98%. The “duration of complete or near‐complete BTK occupancy” value on BTK (healthy subjects ref 21) was 8 to 24 h.

`CC#CC(=O)N1CCC[C@H]1c1nc(-c2ccc(C(=O)Nc3ccccn3)cc2)c2c(N)nccn12` [acalabrutinib]: in series [1], the “atrial fibrillation/flutter, patients” value is 3%.
